Data on 5 compounds can be found in paper PMC4440778, “Structure-Activity Relationship and Mode of Action of a Frog Secreted Antibacterial Peptide B1CTcu5 Using Synthetically and Modularly Modified or Deleted (SMMD) Peptides” (PLoS ONE, 2015).

One may read the MIC as the least concentration at which growth counts as inhibited.

Structures are written as SMILES. Values after ≈ are worked out from the molar mass of the structure shown. Where a SMILES comes first, the peptide text is derived from it. Bridges are numbered along the chain shown (N, C = ends).

The subject of one data set is B. subtilis MTCC 14416. As to conditions: MTCC 14416, 24 h.
For a further data set, the system named is E. coli MG 1655. As to conditions: MG 1655, 24 h.
A further data set has as its system skin cancer cells (A431). Format: cell-based, human. As to the method:
(§1) Cytotoxicity of the peptides against human embryonic kidney (HEK) cells, skin cancer cells (A431) and PBMCs were evaluated by 3-[4, 5-dimethylthiazol-2-yl]-2, 5-diphenyl tetrazolium bromide (MTT) assay. Peptide solution prepared in less than 0.2% DMSO (10–100 μg/ml) was treated with initially seeded 10,000 cells per well for HEK and A431 cells. To assess peptide cytotoxicity in PBMCs, MTT assay was performed by adding different concentrations of the respective peptides to 96 well plate containing 40,000 PBMCs per well, in triplicate. The conversion of MTT into […] was determined by measuring the absorbance at 570 nm.

Another data set concerns S. aureus ATCC 9542. To be noted: ATCC 9542, 24 h.
For data set [1], the system named is human embryonic kidney (HEK) cells. Format: cell-based. As to the method:
as §1

In data set [2] the test system is V. cholerae (clinical isolates). As to conditions: 24 h.
Experimental: (§2) Bacterial cultures were grown in Luria Bertani broth (Hi-media) by overnight incubation at 37°C with constant shaking. Microbial cultures having 10^6 CFU/ml were made from OD 0.6 culture. Respective peptide stock concentration (1mg/ml) were prepared in sterile water and diluted in LB broth to make concentrations ranging from 1–200 μg/ml. Bacterial culture (50 μl) was treated with 50 μl of individual peptide amide solution of various concentrations and incubated for 24 h at 37°C with constant shaking in a 96 well microtitre plate. […] The minimum inhibitory concentration (MIC) was taken as the dose at which 100% of growth inhibition was observed and was calculated from the graph. MIC was calculated from independent experiments performed in triplicate.
The test system of another data set is PBMCs. Format: cell-based, human. As to the method: Peripheral blood mononuclear cells (PBMCs) were isolated from heparanised blood of healthy individuals. Five milliliter of blood was diluted with PBS (pH 7.4), and layered above 5 ml of histopaque and centrifuged at 1200 rpm for 30 min at room temperature. The upper layer was discarded, and the interphase containing PBMCs were carefully withdrawn and washed with PBS. It was centrifuged at 1500 rpm at room temperature for 10 min, the pellets were resuspended in RPMI medium and the cells were counted.
as §1

The next data set deals with P. aeruginosa ATCC 27853. As to conditions: ATCC 27853, 24 h.
The next data set concerns B. coagulans ATCC 7050. As to conditions: ATCC 7050, 24 h.

Experimental for B. coagulans ATCC 7050: as §2
Experimental for B. subtilis MTCC 14416: as §2
Experimental for E. coli MG 1655: as §2
Experimental for P. aeruginosa ATCC 27853: as §2
Experimental for S. aureus ATCC 9542: as §2

For the compound `CC[C@H](C)[C@@H]1NC(=O)[C@H](CCCCN)NC(=O)[C@@H](NC(=O)[C@H](CC(C)C)NC(=O)[C@@H](NC(=O)[C@H](CCC(N)=O)NC(=O)[C@@H]2CCCN2C(=O)[C@H](CC(C)C)NC(=O)[C@H](Cc2ccccc2)NC(=O)[C@H](CC(N)=O)NC(=O)[C@H](C)NC(=O)[C@H](C)NC(=O)[C@H](CC(C)C)NC(=O)CNC(=O)[C@H](C)NC(=O)[C@@H](NC(=O)[C@@H](N)CCCCN)[C@@H](C)CC)[C@@H](C)CC)CSSC[C@@H](C(N)=O)NC(=O)[C@H](CCCCN)NC(=O)[C@H](CCCNC(=N)N)NC(=O)[C@H](C)NC1=O` [B1CTcu5K] (H-KIAGLAANFLPQILCKIARKC-NH2; disulfide 15-21), the MIC against B. subtilis MTCC 14416 was 100 µg/mL (≈ 44.1 µM); in the data set with E. coli MG 1655, 25 µg/mL (≈ 11 µM); in the data set on S. aureus ATCC 9542, 12.5 µg/mL (≈ 5.51 µM); in [2] it was 25 µg/mL (≈ 11 µM); in the data set on P. aeruginosa ATCC 27853 it was above 100 µg/mL; against B. coagulans ATCC 7050 it was 12.5 µg/mL (≈ 5.51 µM). Moreover, the “CC 50” value (in the data set with skin cancer cells (A431); in data set [1]; in the data set on PBMCs) was above 100 µg/mL throughout.
Regarding `CC[C@H](C)[C@@H]1NC(=O)[C@H](CCCCN)NC(=O)[C@@H](NC(=O)[C@H](CC(C)C)NC(=O)[C@@H](NC(=O)[C@H](CCC(N)=O)NC(=O)[C@@H]2CCCN2C(=O)[C@H](CC(C)C)NC(=O)[C@H](Cc2ccccc2)NC(=O)[C@H](CC(N)=O)NC(=O)[C@H](C)NC(=O)[C@H](C)NC(=O)[C@H](CC(C)C)NC(=O)CNC(=O)[C@H](C)NC(=O)[C@@H](NC(=O)[C@@H](N)CC(C)C)[C@@H](C)CC)[C@@H](C)CC)CSSC[C@@H](C(N)=O)NC(=O)[C@H](CCCCN)NC(=O)[C@H](CCCNC(=N)N)NC(=O)[C@H](C)NC1=O` [Cyclic B1CTcu5] (H-LIAGLAANFLPQILCKIARKC-NH2; disulfide 15-21), the MIC against B. subtilis MTCC 14416 is 50 µg/mL (≈ 22.2 µM); with E. coli MG 1655, 25 µg/mL (≈ 11.1 µM); in the data set on S. aureus ATCC 9542, above 100 µg/mL; in data set [2] it was 25 µg/mL (≈ 11.1 µM); against P. aeruginosa ATCC 27853 it was above 100 µg/mL; against B. coagulans ATCC 7050, 15 µg/mL (≈ 6.66 µM). Besides, the “CC 50” value in the data set with skin cancer cells (A431) was above 100 µg/mL; in data set [1], above 100 µg/mL; with PBMCs, 75.1 ± 1.46 µg/mL (≈ 33.3 µM).
Turning to `CC[C@H](C)[C@@H]1NC(=O)[C@H](CCCCN)NC(=O)[C@@H](NC(=O)[C@H](CC(C)C)NC(=O)[C@@H](NC(=O)[C@H](CCC(N)=O)NC(=O)[C@@H]2CCCN2C(=O)[C@H](CC(C)C)NC(=O)[C@H](Cc2ccccc2)NC(=O)[C@H](CC(N)=O)NC(=O)[C@H](C)NC(=O)[C@H](C)NC(=O)[C@@H](N)CC(C)C)[C@@H](C)CC)CSSC[C@@H](C(N)=O)NC(=O)[C@H](CCCCN)NC(=O)[C@H](CCCNC(=N)N)NC(=O)[C@H](C)NC1=O` [B1CTcu5-LIAG] (H-LAANFLPQILCKIARKC-NH2; disulfide 11-17), the MIC against B. subtilis MTCC 14416 was 50 µg/mL (≈ 26.3 µM); in the data set on E. coli MG 1655 it was 12.5 µg/mL (≈ 6.58 µM); with S. aureus ATCC 9542 it was 6.25 µg/mL (≈ 3.29 µM); in [2] it was 12.5 µg/mL (≈ 6.58 µM); in the data set with P. aeruginosa ATCC 27853, above 100 µg/mL; against B. coagulans ATCC 7050, 25 µg/mL (≈ 13.2 µM). The “CC 50” value (in the data set on skin cancer cells (A431); in data set [1]; in the data set on PBMCs) was above 100 µg/mL throughout.
Regarding `CC[C@H](C)[C@@H]1NC(=O)[C@H](CCCCN)NC(=O)[C@@H](NC(=O)[C@H](CC(C)C)NC(=O)[C@@H](NC(=O)[C@H](CCC(N)=O)NC(=O)[C@@H]2CCCN2C(=O)[C@H](CC(C)C)NC(=O)[C@H](Cc2ccccc2)NC(=O)[C@H](CC(N)=O)NC(=O)[C@H](C)NC(=O)[C@H](C)NC(=O)[C@H](CC(C)C)NC(=O)CNC(=O)[C@H](C)NC(=O)[C@@H](NC(=O)[C@@H](N)Cc2c[nH]c3ccccc23)[C@@H](C)CC)[C@@H](C)CC)CSSC[C@@H](C(N)=O)NC(=O)[C@H](CCCCN)NC(=O)[C@H](CCCNC(=N)N)NC(=O)[C@H](C)NC1=O` [B1CTcu5W] (H-WIAGLAANFLPQILCKIARKC-NH2; disulfide 15-21), the MIC in the data set with B. subtilis MTCC 14416 is 50 µg/mL (≈ 21.5 µM); with E. coli MG 1655, 100 µg/mL (≈ 43 µM); in the data set with S. aureus ATCC 9542, 12.5 µg/mL (≈ 5.37 µM); in [2], 25 µg/mL (≈ 10.7 µM); with P. aeruginosa ATCC 27853, above 100 µg/mL; against B. coagulans ATCC 7050, 12.5 µg/mL (≈ 5.37 µM). In addition, the “CC 50” value in the data set on skin cancer cells (A431) is above 100 µg/mL; in data set [1] it was above 100 µg/mL; with PBMCs it was 74.5 ± 2.44 µg/mL (≈ 32 µM).
As to `CC[C@H](C)[C@@H]1NC(=O)[C@H](CCCCN)NC(=O)[C@@H](NC(=O)[C@H](CC(C)C)NC(=O)[C@@H](NC(=O)[C@H](CCC(N)=O)NC(=O)[C@@H]2CCCN2C(=O)[C@H](CC(C)C)NC(=O)[C@H](Cc2ccccc2)NC(=O)[C@H](CC(N)=O)NC(=O)[C@H](C)NC(=O)[C@H](C)NC(=O)[C@H](CC(C)C)NC(=O)CNC(=O)[C@H](C)NC(=O)[C@@H](NC(=O)[C@@H](N)Cc2c[nH]cn2)[C@@H](C)CC)[C@@H](C)CC)CSSC[C@@H](C(N)=O)NC(=O)[C@H](CCCCN)NC(=O)[C@H](CCCNC(=N)N)NC(=O)[C@H](C)NC1=O` [B1CTcu5H] (H-HIAGLAANFLPQILCKIARKC-NH2; disulfide 15-21), the MIC in the data set with B. subtilis MTCC 14416 is 50 µg/mL (≈ 22 µM); with E. coli MG 1655 it was 50 µg/mL (≈ 22 µM); against S. aureus ATCC 9542, above 100 µg/mL; in data set [2], 25 µg/mL (≈ 11 µM); in the data set with P. aeruginosa ATCC 27853 it was above 100 µg/mL; against B. coagulans ATCC 7050 it was 25 µg/mL (≈ 11 µM). Besides, the “CC 50” value in the data set with skin cancer cells (A431) was above 100 µg/mL; in [1] it was above 100 µg/mL; in the data set on PBMCs it was 90 ± 2.56 µg/mL (≈ 39.5 µM).
